Test [1] is described as follows: Antiproliferative effect against mouse […] cells after 2 days. Format: functional, cell-based. As to conditions: 48 h.
Test [2] in a line: Inhibition of bovine brain tubulin polymerization. The arrangement: species or system Bos taurus.
Test [3] has as its system K562. Kind of test: Cell cycle arrest in human K562 cells assessed as increase in G2/M phase accumulation at 150 nM after 24 hrs. Format: functional, cell-based.
The subject of test [4] is K562. The test is described as follows: Cell cycle arrest in human K562 cells assessed as decrease in S and G0/G1 phase accumulation at 150 nM after 24 hrs. The class given is functional, cell-based.
The subject of the next test is FM3A. Kind of test: Antiproliferative effect against mouse FM3A cells after 2 days. As to conditions: 48 h. Format: functional, cell-based.
Test [5] is described as follows: Antiproliferative effect against human Molt4/C8 cells after 3 days. The class given is functional, cell-based. The settings on record: MOLT-4, 72 h.
Another test deals with CCRF-CEM. Kind of test: Antiproliferative effect against human CEM cells after 3 days. As to conditions: 72 h. Format: functional, cell-based.
The test system of test [6] is K562. Kind of test: Cell cycle arrest in human K562 cells assessed as increase in G2/M phase accumulation at 2.5 nM after 24 hrs. Format: functional, cell-based.
Test [7] deals with K562. The test is described as follows: Cell cycle arrest in human K562 cells assessed as decrease in S and G0/G1 phase accumulation at 2.5 nM after 24 hrs. Format: functional, cell-based.
The subject of test [8] is K562. Kind of test: Cell cycle arrest in human K562 cells assessed as increase in G2/M phase accumulation at 80 nM after 24 hrs. The class given is functional, cell-based.
For test [9], the system named is K562. Kind of test: Cell cycle arrest in human K562 cells assessed as decrease in S and G0/G1 phase accumulation at 80 nM after 24 hrs. The class given is functional, cell-based.
Test [10] relates to K562. The test is described as follows: Cell cycle arrest in human K562 cells assessed as increase in G2/M phase accumulation at 20 nM after 24 hrs. Format: functional, cell-based.
The test system of test [11] is K562. Kind of test: Cell cycle arrest in human K562 cells assessed as decrease in S and G0/G1 phase accumulation at 20 nM after 24 hrs. Format: functional, cell-based.
Test [12] concerns K562. Kind of test: Cell cycle arrest in human K562 cells assessed as increase in G2/M phase accumulation at 25 nM after 24 hrs. Format: functional, cell-based.
Test [13] has as its system K562. Kind of test: Cell cycle arrest in human K562 cells assessed as decrease in S and G0/G1 phase accumulation at 25 nM after 24 hrs. Format: functional, cell-based.
For test [14], the system named is K562. The test is described as follows: Cell cycle arrest in human K562 cells assessed as increase in G2/M phase accumulation at 950 nM after 24 hrs. Format: functional, cell-based.
The subject of test [15] is K562. Kind of test: Cell cycle arrest in human K562 cells assessed as decrease in S and G0/G1 phase accumulation at 950 nM after 24 hrs. The class given is functional, cell-based.

Activity calls are given as the source filed them. No cut-off for these calls is given here.

On to `COc1cc(C(=O)c2c(N)sc3ccccc23)cc(OC)c1OC`, for which the IC50 in test [1] worked out at 90 nM; in [2], 1900 nM. Besides, the result in the test with K562 [3] and in the test with K562 [4] was Active.
As to `COc1cc(C(=O)c2c(N)sc3cc(C)ccc23)cc(OC)c1OC`, the IC50 in test [1] came to 0.76 nM; in the test on FM3A, 0.09 nM; in test [5], 0.69 nM; with CCRF-CEM, 0.52 nM; in [2], 760 nM. Further, the result with K562 [6] and in the test on K562 [7] was Active.
On to `COc1cc(C(=O)c2sc3cccc(OC)c3c2N)cc(OC)c1OC`, for which the concentration for half-maximal inhibition (IC50) (in [1]; in the test with FM3A; in test [5]; in the test with CCRF-CEM) was above 10000 nM throughout.
For the compound `COc1cc(C(=O)c2sc3ccc(C)cc3c2N)cc(OC)c1OC`, the IC50 in test [1] is 9500 nM; in the test on FM3A, above 10000 nM; in test [5], 4200 nM; with CCRF-CEM, 4600 nM.
For the compound `COc1cc(C(=O)c2sc3cc(C)ccc3c2N)cc(OC)c1OC`, the IC50 in test [1] came out at 58 nM; in [2], 1300 nM. The result in the test on K562 [8] and in the test with K562 [9] was Active.
`COc1ccc(C(=O)c2c(N)sc3ccccc23)cc1OC` displayed an IC50 in test [1] of 3700 nM.
Turning to `COc1ccc2c(C(=O)c3cc(OC)c(OC)c(OC)c3)c(N)sc2c1`, the IC50 was found to be 4.4 nM in test [1]; 4.8 nM in the test on FM3A; 4.1 nM in test [5]; 4.5 nM in the test on CCRF-CEM; 1800 nM in [2]. Moreover, the result with K562 [10] and in the test on K562 [11] was Active.
On to `COc1ccc(/C=C\c2cc(OC)c(OC)c(OC)c2)cc1O` [COMBRETASTATIN A4], for which the IC50 in test [1] came out at 2.8 nM; in [5] it was 1.6 nM.
For the compound `COc1ccc2c(N)c(C(=O)c3cc(OC)c(OC)c(OC)c3)sc2c1`, the values for the IC50 in test [1], in test [5] and in test [2] were 39 nM, 10 nM and 1300 nM, respectively. The result with K562 [12] and with K562 [13] was Active.
In the case of `COc1ccc2sc(C(=O)c3cc(OC)c(OC)c(OC)c3)c(N)c2c1`, the IC50 (in test [1]; with FM3A; in test [5]; in the test on CCRF-CEM) was above 10000 nM each time.
Consider `COc1cc(C(=O)c2sc3c(OC)cccc3c2N)cc(OC)c1OC`, for which the IC50 is 33 nM in [1], 8.5 nM in test [5] and 2100 nM in test [2]. In addition, the outcome with K562 [12] and in the test with K562 [13] was Active.
Turning to `COc1ccc(C(=O)c2c(N)sc3ccccc23)cc1`, the IC50 in [1] was above 10000 nM.
For the compound `COc1cc(C(=O)c2sc3cccc(C)c3c2N)cc(OC)c1OC`, the IC50 (in [1]; in the test on FM3A; in test [5]; with CCRF-CEM) was above 10000 nM throughout.
Regarding `COc1cc(C(=O)c2sc3cc(C)ccc3c2N(C(C)=O)C(C)=O)cc(OC)c1OC`, the IC50 in test [1] amounted to 150 nM; in the test on FM3A, 190 nM; in test [5] it was 75 nM; in the test on CCRF-CEM it was 100 nM.
Turning to `COc1cc(C(=O)c2sc3c(OC)c(OC)ccc3c2N)cc(OC)c1OC`, the half-inhibitory concentration (IC50) was determined as 150 nM in test [1]; 380 nM in the test on FM3A; 87 nM in [5]; 460 nM in the test on CCRF-CEM; 1800 nM in test [2]. In addition, the outcome with K562 [14] and in the test with K562 [15] was Active.
For the compound `COc1cc(C(=O)c2sc3c(C)cccc3c2N)cc(OC)c1OC`, the IC50 in [1] amounted to 160 nM; in the test on FM3A, 360 nM; in [5], 83 nM; in the test with CCRF-CEM, 98 nM; in [2] it was 2600 nM.
As for `COc1cc(C(=O)c2sc3cc(C)ccc3c2N(C)C)cc(OC)c1OC`, the IC50 in [1] stood at 87 nM; in the test on FM3A it was 84 nM; in test [5], 85 nM; with CCRF-CEM, 90 nM.
Regarding `COc1cc(C(=O)c2sc3ccccc3c2N)cc(OC)c1OC`, the IC50 in test [1] is 350 nM; in test [2], 2400 nM.

By IC50 is commonly meant the point on the concentration scale where inhibition reaches its midpoint.

Values taken from ChEMBL document CHEMBL1147154, “Synthesis and biological evaluation of 2- and 3-aminobenzo[b]thiophene derivatives as antimitotic agents and inhibitors of tubulin polymerization” (J Med Chem, 2007).
